US8461183B2, “PPAR agonist compounds, preparation and uses” (Genfit, priority 2008, dated 2013)

How the values were obtained:
[1] = test system: PPARα target genes (ACO, PDK-4, Apo CIII) in liver; assay: Hepatic expression of PPARα target genes (quantitative RT-PCR) in the ApoE2/E2 mouse; assay type: in vivo; conditions: 10 and 100 mpk, 7 days, normalized to 36B4
Text: The PPARα agonist properties previously measured in vitro should be translated at the hepatic level by a change in the level of expression of the target genes directly under the control of the PPARα receptor: the genes that were studied in these experiments are those coding for ACO (a key enzyme in the mechanism of β-oxidation of fatty acids), PDK-4 (an enzyme of carbohydrate metabolism) and Apo CIII (apolipoprotein involved in lipid metabolism). This change in gene expression after treatment with the compounds according to the invention is therefore also an indicator of their hypolipemic character.
Apo E2/E2 transgenic mice were kept in a cycle of light and darkness of 12 hours/12 hours at a constant temperature of 20±3° C. After acclimation for one week, the mice were weighed and put into groups of 6 animals selected in such a way that the distribution of their bodyweight and of their plasma lipid values determined first before the experiment are uniform. The compounds tested were suspended in carboxymethylcellulose (Sigma C4888) and administered at the chosen dose by stomach tube, at a rate of once a day for 7 days at the chosen dose. The animals had free access to water and food. At the end of the experiment, the animals were anesthetized after fasting for 4 hours, a blood sample was taken on anticoagulant (EDTA), then the mice were weighed and euthanased. The plasma was separated by centrifugation at 3000 rev/min for 20 minutes, and the samples were stored at +4° C. for the biochemical assays. Samples of liver were taken and frozen immediately in liquid nitrogen and then stored at −80° C. for subsequent analyses.
Total RNA was extracted from fragments of liver using the NucleoSpin® 96 RNA kit (Macherey Nagel, Hoerdt, France) according to the manufacturer's instructions. 1 μg of total RNA (quantified using the Ribogreen RNA quantification kit (Molecular Probes)) was then reverse transcribed to complementary DNA by a reaction of 1 hour at 37° C. in a total volume of 20 μl containing buffer 1× (Sigma), 1.5 mM of DTT, 0.18 mM of dNTPs (Promega), 200 ng of pdN6 (Amersham), 30U of RNase inhibitor (Sigma) and 1 μl of MMLV-RT (Sigma).
The quantitative PCR experiments were performed using the MyiQ Single-Color Real-Time PCR Detection System (Biorad, Marnes-la-Coquette, France) and were carried out using the iQ SYBR Green Supermix kit according to the supplier's recommendations, in 96-well plates, on 5 μl of diluted reverse transcription reaction mixtures, with a hybridization temperature of 55° C. Specific primer pairs of the genes under investigation were used:
The amount of fluorescence emitted is directly proportional to the amount of complementary DNA present at the start of the reaction and amplified during PCR. For each target investigated, a range is prepared by successive dilutions of a pool consisting of a few μl of different reverse transcription reactions. The relative levels of expression of each target are thus determined using the curves of efficacy obtained with the scale points.
The levels of expression of the genes of interest were then normalized relative to the level of expression of the 36B4 reference gene (whose specific primers are: […]
The induction factor, i.e. the ratio of the relative signal (induced by the compound according to the invention) to the mean of the relative values of the control group, was then calculated for each sample. The higher this factor, the more the compound has a character of activation of gene expression. The final result is represented as the mean of the induction values in each experimental group.

[2] = test system: db/db mouse; assay: Antidiabetic character in the db/db mouse: plasma glycemia, insulinemia, HOMA index; assay type: in vivo; conditions: 30 mpk oral, 8 days
Description: The aim of this study is to evaluate in vivo the antidiabetic character of the compounds according to the invention, in the db/db mouse (Berger J et al., 1996). The antidiabetic effect of the compounds is evaluated by measuring glycemia and insulinemia after 8 days of treatment. In diabetic animals (as in humans), administration of glucose leads to a significant increase in the plasma level of insulin. This induced hyperinsulinemia causes a lowering of glycemia, which is delayed in insulin-resistant animals, for example in the db/db mouse.
Male db/db mice (CERJ—Le Genest St Isle-France) are used for this experiment. After acclimation for one week, the mice were weighed and put into groups of 8 animals, selected in such a way that the distribution of their bodyweight and of their fasting glycemia determined for the first time before the experiment are uniform. The compound tested was suspended in carboxymethylcellulose (Sigma C4888) and administered by stomach tube, at a rate of once a day for 9 days at the chosen dose. The animals had free access to water and food (standard diet) and were housed in ventilated cages with a rhythm of light and darkness of 12 hours/12 hours at a constant temperature of 20±3° C. The food intake and weight gain were recorded throughout the experiment. After administration of the compound for 8 days, a blood sample was taken by puncture in the retro-orbital sinus of the animals under volatile anesthesia with isoflurane in order to measure the plasma concentrations of glucose and insulin.
Assay of murine insulin is carried out by the Elisa method (Insulin Elisa Kit-Crystal Chem. USA). A mouse anti-insulin antibody is fixed on a microplate. The serum to be assayed for insulin is then deposited on this plate. A guinea pig anti-insulin antibody will recognize the insulin/mouse monoclonal anti-insulin antibody complex and bind to it. […]
Glucose was determined by enzyme assays (bioMérieux-Lyons-France) according to the suppliers recommendations.

Compound | hepatic expression of gene coding for ACO [1] | hepatic expression of gene coding for ApoCIII [1] | hepatic expression of gene coding for PDK-4 [1] | glycemic profile (plasma glucose) [2] | insulinemic profile (plasma insulin) [2] | HOMA index ([2]; calculated from plasma glucose and insulin)
COc1nc(-c2ccccc2)ccc1COc1ccc(OCC(=O)O)cc1 [Cpd 2, 2-(4-((2-methoxy-6-phenylpyridin-3-yl)methoxy)phenoxy)ethanoic acid] | hepatic overexpression | significant inhibition | hepatic overexpression | – | – | –
COc1nc(-c2ccc(C(F)(F)F)cc2)ccc1COc1ccc(OCC(=O)O)cc1 [Cpd 24, 2-(4-((2-methoxy-6-(4-(trifluoromethyl)phenyl)pyridin-3-yl)methoxy)-phenoxy)ethanoic acid] | – | – | – | overall improvement | overall improvement | decrease
COc1nc(-c2ccccc2)ccc1CNc1ccc(OCC(=O)O)cc1 [Cpd 4, 2-(4-(((2-methoxy-6-phenylpyridin-3yl)methyl)amino)phenoxy)ethanoic acid] | hepatic overexpression | significant inhibition | hepatic overexpression | – | – | –
